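Compound exposure: 48 hours, 5 concentrations, 96-well plates. Abbreviation: GI50, concentration required for 50% inhibition of growth.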 Active and inactive are the calls of the source. Rule as the data show it: active = GI50 up to about 1.1 µM and inactive = higher.

The results in this text go back to ChEMBL document CHEMBL1201862, “PubChem BioAssay data set” (2004).

Some test systems named below: SK-OV-3; SF-295; T47D; SN12C; UO-31; MCF7; DU-145; SNB-19; UACC-257; KM12; CCRF-CEM; NCI-H23; HCT-116; K562; LOX IMVI; NCI-H460; OVCAR-5; SF-268; SR.
Common to all, as to test: inhibition of tumour cell growth, NCI panel, 48 h

On to `Nc1nc(Nc2ccccc2)c2[nH]cnc2n1`, for which the GI50 with SK-OV-3 was 84.5 µM (inactive); with SF-295 it was > 100 µM (inactive); in the assay with T47D it was > 100 µM (inactive); in the assay on SN12C, > 100 µM (inactive); in the assay on UO-31 it was 34.8 µM (inactive); with MCF7, > 100 µM (inactive). Besides, the GI50 in the assay with DU-145 was 77.3 µM (inactive); in the assay with SNB-19 it was > 100 µM (inactive); with UACC-257 it was > 100 µM (inactive); with KM12, 35.6 µM (inactive); with CCRF-CEM it was 50.7 µM (inactive); in the assay with NCI-H23, > 100 µM (inactive). The values for the GI50 in the assay with HCT-116, in the assay on K562 and with LOX IMVI were 69 µM (inactive), 62.5 µM (inactive) and 77.6 µM (inactive), respectively.

As to `O=C(O)CNc1ncc2c(n1)-c1ccccc1OC2`, the GI50 in the assay with SK-OV-3, in the assay with SF-295, in the assay with NCI-H460, in the assay with OVCAR-5, in the assay on SN12C and with UO-31 was > 100 µM (inactive) throughout. The GI50 in the assay on MCF7, in the assay with SF-268, with DU-145, in the assay with SNB-19, in the assay on UACC-257 and with KM12 was > 100 µM (inactive) in each case. Moreover, the GI50 in the assay on CCRF-CEM, in the assay on NCI-H23, in the assay with SR, in the assay on HCT-116, with K562 and with LOX IMVI was > 100 µM (inactive) in each case.

For the compound `Oc1ccc(/C=N/NC(=S)Nc2cccnc2)nc1`, the GI50 is 8.99 µM (inactive) with SK-OV-3; 19.9 µM (inactive) in the assay on SF-295; 8.69 µM (inactive) in the assay on T47D; 40.3 µM (inactive) in the assay on OVCAR-5; 6.93 µM (inactive) with SN12C; 2.78 µM (inactive) in the assay on UO-31. Further, the GI50 is 7.89 µM (inactive) in the assay with MCF7; 1.39 µM (inactive) in the assay with SF-268; 3.72 µM (inactive) in the assay on DU-145; 22.7 µM (inactive) with SNB-19; 13.7 µM (inactive) in the assay with UACC-257; 6.71 µM (inactive) in the assay on KM12. Further, the GI50 is 3.27 µM (inactive) with CCRF-CEM; 8.15 µM (inactive) in the assay on NCI-H23; 0.134 µM (active) with SR; 4.49 µM (inactive) in the assay with HCT-116; 3.99 µM (inactive) in the assay on K562; 3.26 µM (inactive) in the assay on LOX IMVI.

Take `COCc1cc2c(cc1/C=C/[N+](=O)[O-])OCO2`: the GI50 is 17.9 µM (inactive) with SK-OV-3; 21.6 µM (inactive) in the assay with SF-295; 21.1 µM (inactive) with T47D; 17.7 µM (inactive) in the assay with NCI-H460; 16.4 µM (inactive) with OVCAR-5; 18.5 µM (inactive) with SN12C. Besides, the GI50 in the assay with UO-31 was 17 µM (inactive); with MCF7, 29.7 µM (inactive); in the assay with SF-268 it was 20.7 µM (inactive); in the assay with DU-145, 19.4 µM (inactive); with UACC-257, 16.8 µM (inactive); in the assay with KM12, 20.8 µM (inactive). Besides, the GI50 with CCRF-CEM is 1.62 µM (inactive); with NCI-H23, 27.4 µM (inactive); with SR it was 53.3 µM (inactive); in the assay with HCT-116, 17.9 µM (inactive); in the assay with K562, > 100 µM (inactive); with LOX IMVI it was 27.5 µM (inactive).

`Cc1ccc2nc3ccccc3c(C3C4C(=O)N(c5ccc(Br)cc5Cl)C(=O)C4ON3C(C(N)=O)c3ccccc3)c2c1` (stereo unspecified): the GI50 with SK-OV-3 was > 25 µM (inactive); in the assay with SF-295, > 25 µM (inactive); in the assay on T47D it was > 25 µM (inactive); in the assay with NCI-H460 it was > 25 µM (inactive); with OVCAR-5, > 25 µM (inactive); with SN12C, 5.47 µM (inactive). For the same compound, the GI50 in the assay with UO-31 is 7.41 µM (inactive); with MCF7, 11.6 µM (inactive); in the assay on SF-268, > 25 µM (inactive); in the assay on DU-145 it was > 25 µM (inactive); in the assay with SNB-19, > 25 µM (inactive); with UACC-257, 15.6 µM (inactive). Further, the GI50 in the assay with KM12 is > 25 µM (inactive); in the assay on CCRF-CEM it was 8.13 µM (inactive); in the assay with NCI-H23, 0.321 µM (active); in the assay on SR it was 7.26 µM (inactive); in the assay with HCT-116 it was 13.7 µM (inactive); in the assay on K562 it was > 25 µM (inactive). The GI50 in the assay on LOX IMVI is 22.8 µM (inactive).

Consider `Cc1cc(C23OC4COC(C)(C)OC4C2OC(C)(C)O3)nc2ccccc12` (stereo unspecified), for which the GI50 in the assay with SK-OV-3, in the assay on SF-295, in the assay on T47D, with NCI-H460, in the assay with OVCAR-5 and with SN12C was > 100 µM (inactive) in each case. The GI50 with UO-31, in the assay on MCF7, in the assay with SF-268, in the assay on DU-145, with SNB-19 and in the assay with UACC-257 was > 100 µM (inactive) throughout. Besides, the GI50 in the assay on KM12 was > 100 µM (inactive); in the assay with CCRF-CEM, 32.1 µM (inactive); with NCI-H23, > 100 µM (inactive); with SR it was 72.8 µM (inactive); with HCT-116, > 100 µM (inactive); with K562, 44.1 µM (inactive). In the assay on LOX IMVI, the GI50 was > 100 µM (inactive).

On to `CC(=O)CCC(=O)CC(O)(C(F)(F)F)C(F)(F)F`, for which the GI50 in the assay with SK-OV-3 was > 10 µM (inactive); with SF-295, 12.4 µM (inactive); in the assay with T47D, 11.4 µM (inactive); in the assay on NCI-H460 it was 20.7 µM (inactive); in the assay on OVCAR-5, 12.9 µM (inactive); in the assay on SN12C, 20.9 µM (inactive). The GI50 is 14.5 µM (inactive) with UO-31; 18.8 µM (inactive) in the assay with MCF7; 22.3 µM (inactive) in the assay on SF-268; 20.5 µM (inactive) in the assay with DU-145; 15.9 µM (inactive) with SNB-19; 17.8 µM (inactive) with UACC-257. In addition, the GI50 in the assay on KM12 is 15.9 µM (inactive); in the assay on CCRF-CEM, 21.6 µM (inactive); with NCI-H23, 21.2 µM (inactive); with SR it was 16.4 µM (inactive); in the assay on HCT-116, 16.9 µM (inactive); with K562, 15.3 µM (inactive).

As to `CC1(Cl)CC2OC3(Br)C=CC(C)(O)C2(CC1Br)C3(C)C` (stereo unspecified), the GI50 in the assay on SK-OV-3, in the assay with SF-295, in the assay with NCI-H460, in the assay on OVCAR-5, with SN12C and in the assay with UO-31 was > 100 µM (inactive) throughout. Besides, the GI50 was > 100 µM (inactive) in the assay on SF-268; > 100 µM (inactive) with SNB-19; 97.5 µM (inactive) in the assay on UACC-257; > 100 µM (inactive) in the assay on KM12; > 100 µM (inactive) in the assay on CCRF-CEM; > 100 µM (inactive) in the assay with NCI-H23. Further, the GI50 is 23.6 µM (inactive) with SR, > 100 µM (inactive) in the assay on HCT-116, > 100 µM (inactive) in the assay with K562 and > 100 µM (inactive) in the assay with LOX IMVI.
